According to PubChem BioAssay AID624129 (Sanford-Burnham Center for Chemical Genomics, 2012):
pIC50: −log10 of the molar value. The source made the active and inactive calls. No rule for the calls is given here.

Columns and labels:
Test in all cases: CXCR6 receptor antagonists, dose response, cell-based, beta-arrestin, DiscoveRx, APJ panel, uHTS hits (AID 624129)
[1] = target: C-C chemokine receptor type 6 (Homo sapiens) (UniProt P51684); conditions: CXCR6 beta-arrestin (DiscoveRx) antagonist cell assay
[2] = target: C-X-C chemokine receptor type 6 (Homo sapiens) (UniProt O00574); conditions: CXCR6 beta-arrestin (DiscoveRx) antagonist cell assay; for inhibition: CXCR6, run 1, dose range 2, at 80 µM (top of the series)
[3] = target: Beta-galactosidase (Escherichia coli) (UniProt Q8VNN2); conditions: CXCR6 beta-arrestin (DiscoveRx) antagonist cell assay, b-galactosidase
[4] = target: Apelin receptor (Homo sapiens) (UniProt P35414); conditions: CXCR6 beta-arrestin (DiscoveRx) antagonist cell assay, APJ
[5] = CCR6, dose range 1, mean IC50 across replicates
[6] = CXCR6, dose range 1, mean IC50 across replicates
[7] = dose range 1, mean IC50 across replicates

Sequence of Beta-galactosidase (Escherichia coli) (Q8VNN2 whole entry, looked up): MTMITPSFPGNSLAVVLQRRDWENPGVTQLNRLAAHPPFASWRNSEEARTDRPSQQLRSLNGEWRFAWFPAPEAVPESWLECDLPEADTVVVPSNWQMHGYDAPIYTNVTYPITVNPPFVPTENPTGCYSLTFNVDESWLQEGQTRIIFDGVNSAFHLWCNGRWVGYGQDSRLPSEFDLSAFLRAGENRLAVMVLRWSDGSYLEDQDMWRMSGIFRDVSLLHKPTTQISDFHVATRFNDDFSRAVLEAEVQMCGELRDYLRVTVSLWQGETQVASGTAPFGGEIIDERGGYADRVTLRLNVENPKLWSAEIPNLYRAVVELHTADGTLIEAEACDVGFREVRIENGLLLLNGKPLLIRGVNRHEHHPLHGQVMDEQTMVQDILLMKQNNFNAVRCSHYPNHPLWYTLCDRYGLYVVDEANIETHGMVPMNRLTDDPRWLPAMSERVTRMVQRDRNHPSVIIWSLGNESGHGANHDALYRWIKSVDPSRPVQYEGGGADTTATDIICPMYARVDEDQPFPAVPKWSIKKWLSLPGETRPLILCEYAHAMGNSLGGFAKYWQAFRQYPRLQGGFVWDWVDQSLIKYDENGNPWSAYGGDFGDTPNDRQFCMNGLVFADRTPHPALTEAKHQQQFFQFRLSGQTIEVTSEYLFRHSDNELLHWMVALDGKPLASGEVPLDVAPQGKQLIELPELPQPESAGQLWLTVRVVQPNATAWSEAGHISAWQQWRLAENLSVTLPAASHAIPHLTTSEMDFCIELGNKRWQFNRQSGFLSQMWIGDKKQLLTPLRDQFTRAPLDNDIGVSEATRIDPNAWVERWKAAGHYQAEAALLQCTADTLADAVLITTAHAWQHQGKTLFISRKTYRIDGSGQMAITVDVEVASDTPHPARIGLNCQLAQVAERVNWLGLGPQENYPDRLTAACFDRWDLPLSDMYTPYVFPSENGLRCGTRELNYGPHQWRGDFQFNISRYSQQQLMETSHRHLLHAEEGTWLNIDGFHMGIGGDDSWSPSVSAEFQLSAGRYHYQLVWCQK
Sequence of C-X-C chemokine receptor type 6 (Homo sapiens) (O00574 whole entry, looked up): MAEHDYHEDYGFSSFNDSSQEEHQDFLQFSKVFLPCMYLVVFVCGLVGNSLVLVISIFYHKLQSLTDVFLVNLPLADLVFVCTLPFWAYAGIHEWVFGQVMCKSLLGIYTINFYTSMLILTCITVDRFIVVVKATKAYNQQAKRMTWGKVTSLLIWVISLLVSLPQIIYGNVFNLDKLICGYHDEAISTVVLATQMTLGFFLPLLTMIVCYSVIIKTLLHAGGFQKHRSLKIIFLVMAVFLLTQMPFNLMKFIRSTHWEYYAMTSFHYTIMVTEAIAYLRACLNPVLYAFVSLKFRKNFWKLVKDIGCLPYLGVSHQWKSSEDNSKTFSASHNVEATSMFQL

Compound	pIC50 ([1]; CCR6, dose range 1)	pIC50 [1, 5]	pIC50 ([1]; CCR6, run 2, dose range 1)	IC50 ([2]; CXCR6, dose range 1)	pIC50 [2, 6]	inhibition [2]	pIC50 ([2]; CXCR6, run 2, dose range 1)	IC50 ([3]; dose range 1)	pIC50 [3, 7]	pIC50 ([4]; dose range 1)	pIC50 [4, 7]	pIC50 ([4]; run 2, dose range 1)	pIC50 ([4]; run 3, dose range 1)	pIC50 ([2]; CXCR6, run 1, dose range 2)	pIC50 ([2]; CXCR6, run 2, dose range 2)	pIC50 ([3]; dose range 1)	pIC50 ([2]; CXCR6, dose range 1)
CS(=O)(=O)c1sc(C#N)c2c1C(=O)CC(c1ccccc1)C2 (configuration not stated)	4.56	4.42	4.31	inactive	4.34	73.2%	4.49	> 80 µM (inactive)	< 4.10	4.16	4.16	< 4.10	< 4.10	–	–	–	–
O=[N+]([O-])c1cc(Cc2ccccc2)cc(C=Nc2ccc(N3CCOCC3)cc2)c1O	–	4.43	4.43	inactive	4.84	93.2%	4.88	inactive	4.19	4.80	4.54	4.47	4.43	–	–	–	–
COc1ccc(N2C(=O)CC(Sc3nnnn3-c3ccc(F)cc3)C2=O)cc1 (configuration not stated)	5.08	5.02	4.97	> 80 µM (inactive)	< 4.10	-50.3%	< 4.10	> 80 µM (inactive)	< 4.10	5.00	5.00	< 4.10	< 4.10	–	–	–	–
N#CC(C#N)=C1C=CC=CN1/C(=C\c1ccco1)C(=O)c1ccc(Br)cc1	–	< 4.10	< 4.10	> 80 µM (inactive)	< 4.10	19.9%	< 4.10	> 80 µM (inactive)	< 4.10	–	< 4.10	< 4.10	< 4.10	–	–	–	–
O=C(c1nnsc1S(=O)c1ccc(Cl)cc1)N1CCOCC1 (configuration not stated)	4.88	4.46	4.26	inactive	4.74	56.2%	4.76	> 80 µM (inactive)	< 4.10	4.72	4.56	4.60	4.41	–	–	–	–
COC(=O)C1=C(c2ccc(-c3ccccc3)c(F)c2)C[C@@H]2CC[C@H]1N2C(=O)N1CCC(C)CC1	5.31	5.08	4.94	inactive	4.95	88%	4.97	> 80 µM (inactive)	< 4.10	5.07	4.96	4.86	4.99	–	–	–	–
FC(F)(F)c1cnc(NNC(=S)Nc2ccc(Cl)cc2)c(Cl)c1	4.96	4.98	5.00	inactive	4.92	–	4.84	–	4.39	4.91	4.90	4.77	5.07	5.11	4.85	4.39	–
O=[N+]([O-])c1ccc(S(=O)(=O)c2ccccc2)nc1	–	< 4.10	< 4.10	> 80 µM (inactive)	< 4.10	19.8%	< 4.10	> 80 µM (inactive)	< 4.10	–	< 4.10	< 4.10	< 4.10	–	–	–	–
Cc1nc2c(-c3ccc(Cl)cc3)c(C)[nH]n2c(=O)c1Cc1ccccc1	–	< 4.10	< 4.10	> 80 µM (inactive)	< 4.10	-28.7%	< 4.10	> 80 µM (inactive)	< 4.10	–	< 4.10	< 4.10	< 4.10	–	–	–	–
COc1cc(/C=C/c2ccc3c(Br)cc(Br)c(O)c3n2)ccc1O	4.90	4.92	4.94	inactive	4.90	–	4.93	> 80 µM (inactive)	< 4.10	4.69	4.63	4.73	4.49	5.06	4.90	–	–
CC(=O)OC1C2(CC3N4C(=O)C5(CO)SSC4(CC31O)C(=O)N5C)OC(C)C(C)(C)C2=O (configuration not stated)	5.87	5.87	5.87	–	6.14	–	6.03	> 80 µM (inactive)	< 4.10	5.96	5.91	6.04	5.79	6.30	6.27	–	6.03
COC(=O)c1ccc2c(c1)C(C)(C)C(/C=C/c1ccc(OC)c(OC)c1OC)=[N+]2C	5.12	5.03	4.96	–	5.04	–	4.98	> 80 µM (inactive)	< 4.10	4.82	4.82	4.85	4.80	5.13	5.14	–	4.94

Second part, the compound after the results:

pIC50 ([1]; CCR6, dose range 1)	pIC50 [1, 5]	pIC50 ([1]; CCR6, run 2, dose range 1)	IC50 ([2]; CXCR6, dose range 1)	pIC50 [2, 6]	inhibition [2]	pIC50 ([2]; CXCR6, run 2, dose range 1)	IC50 ([3]; dose range 1)	pIC50 [3, 7]	pIC50 ([4]; dose range 1)	pIC50 [4, 7]	pIC50 ([4]; run 2, dose range 1)	pIC50 ([4]; run 3, dose range 1)	pIC50 ([2]; CXCR6, run 1, dose range 2)	pIC50 ([2]; CXCR6, run 2, dose range 2)	pIC50 ([3]; dose range 1)	pIC50 ([2]; CXCR6, dose range 1)	Compound
5.79	5.76	5.73	–	5.57	–	5.47	–	4.46	5.20	5.06	5.36	4.82	5.52	5.58	4.46	5.75	O=[N+]([O-])c1c(Nc2ccc(O)cc2)cc(Cl)c2nonc12
5.68	5.65	5.61	–	5.64	–	5.53	> 80 µM (inactive)	< 4.10	5.63	5.61	5.59	< 4.10	5.70	5.82	–	5.56	C/C(=N\NC(=O)COc1ccccc1-c1ccccc1)c1ccccn1
5.57	5.61	5.65	–	5.53	–	5.56	–	5.44	5.43	5.34	5.30	5.31	5.61	5.53	5.44	5.45	Cc1ccc(CN2C(=O)C(Cc3ccccc3)Nc3ncnc(N4CCN(c5ccccc5)CC4)c32)cc1 (configuration not stated)
5.66	5.59	5.52	–	5.45	129%	5.59	> 80 µM (inactive)	< 4.10	5.33	5.30	5.26	5.31	–	–	–	5.35	Cc1ccnc(N2C(=O)c3cccc4c([N+](=O)[O-])ccc(c34)C2=O)c1
5.28	5.26	5.23	–	5.05	–	5.14	> 80 µM (inactive)	< 4.10	5.15	5.18	5.14	5.23	4.98	4.96	–	5.13	CCC1CCCCN1S(=O)(=O)c1ccc(NC(=O)c2nc(S(C)(=O)=O)ncc2Cl)cc1 (configuration not stated)
5.20	5.16	5.11	inactive	4.96	–	4.77	> 80 µM (inactive)	< 4.10	5.07	4.90	4.92	4.77	5.11	5.06	–	–	CCc1ccccc1OCC(=O)Nc1nc(-c2cccnc2)cs1
5.05	5.09	5.13	–	5.11	–	5.02	> 80 µM (inactive)	< 4.10	4.89	4.94	4.95	4.98	5.08	5.21	–	5.14	Cc1nnc(Sc2cc(NCCCO)c([N+](=O)[O-])c3nonc23)s1
5.14	5.07	5.01	–	5.50	–	5.44	> 80 µM (inactive)	< 4.10	5.35	5.41	5.49	5.41	5.49	5.69	–	5.42	CS(=O)(=O)c1ccc(C(=O)OCc2nnc(-c3ccccc3)o2)cc1[N+](=O)[O-]
5.12	5.08	5.04	–	4.98	–	4.80	> 80 µM (inactive)	< 4.10	5.06	4.81	4.98	4.57	5.13	5.00	–	5.10	CCCCOc1ccc(C(=O)NNC(=S)NC(=O)CC)cc1
5.31	5.27	5.23	–	5.29	–	5.23	> 80 µM (inactive)	< 4.10	5.28	5.23	5.21	5.20	5.36	5.28	–	5.31	Cc1ccc2c(C)ccc(O)c2n1
